According to ChEMBL document CHEMBL3112457, “Inhibition of hypoxia-inducible factor prolyl hydroxylase domain oxygen sensors: tricking the body into mounting orchestrated survival and repair responses” (J Med Chem, 2013):

Assays:
Prolyl hydroxylase EGLN3 [1] = molecular target: T1, Prolyl hydroxylase EGLN3 (Homo sapiens, UniProt Q9H6Z9); experiment: Inhibition of PHD3 in human Hep3B cells assessed as stimulation of EPO release after 48 hrs by ELISA; format: cell-based, Hep 3B2
Prolyl hydroxylase EGLN3 [2] = molecular target: T1, Prolyl hydroxylase EGLN3; experiment: Inhibition of 6His-tagged PHD3 (1 to 239) (unknown origin)-mediated Cy5CODD hydroxylation expressed in Escherichia coli after 30 mins
Egl nine homolog 1 [3] = molecular target: T2, Egl nine homolog 1 (Homo sapiens, UniProt Q9GZT9); experiment: Inhibition of PHD2 (unknown origin) using P564 HIFlalpha as substrate after 1 hr by TR-FRET assay
Target sequence in this assay (Q9GZT9 whole entry): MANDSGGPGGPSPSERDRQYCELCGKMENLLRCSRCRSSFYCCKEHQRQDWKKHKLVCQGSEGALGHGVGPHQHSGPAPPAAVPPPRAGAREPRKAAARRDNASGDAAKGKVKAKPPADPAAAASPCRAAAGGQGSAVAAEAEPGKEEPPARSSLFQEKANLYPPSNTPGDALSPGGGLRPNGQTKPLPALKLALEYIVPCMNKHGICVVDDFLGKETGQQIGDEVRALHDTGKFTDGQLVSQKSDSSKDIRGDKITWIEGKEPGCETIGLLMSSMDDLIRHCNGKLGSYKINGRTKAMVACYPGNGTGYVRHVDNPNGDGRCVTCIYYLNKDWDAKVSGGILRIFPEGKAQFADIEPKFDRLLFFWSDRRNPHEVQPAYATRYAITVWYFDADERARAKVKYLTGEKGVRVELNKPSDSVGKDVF

Prolyl hydroxylase EGLN3 [4] = molecular target: T1, Prolyl hydroxylase EGLN3; experiment: Inhibition of 6His-tagged PHD3 (1 to 239) (unknown origin)-mediated Cy5CODD hydroxylation expressed in Escherichia coli preincubated for 3 mins followed by substrate addition measured after 30 mins
Hep 3B2 = experiment: Inhibition of prolyl hydroxylase in human Hep3B cells assessed as stimulation of EPO release at 100 uM after 24 hrs relative to control; format: cell-based; set-up: scale not given: the % may be the effect or the level left
[5] = Inhibition of prolyl hydroxylase (unknown origin) using biotin-labeled DLDLEMLAPYIPMDDDFQL as substrate after 60 mins by FRET assay; set-up: species or system Homo sapiens
Egl nine homolog 1 [6] = molecular target: T2, Egl nine homolog 1; experiment: Inhibition of HIF-PH2 (unknown origin) expressed in insect Hi5 cells using [methoxycoumarin]-DLDLEALAPYIPADDDFQL-amide as substrate at 22.2 uM by [14]CO2 capture assay relative to control; conditions: BTI-TN-5B1-4
Target sequence in this assay (Q9GZT9 2-426 limits assumed): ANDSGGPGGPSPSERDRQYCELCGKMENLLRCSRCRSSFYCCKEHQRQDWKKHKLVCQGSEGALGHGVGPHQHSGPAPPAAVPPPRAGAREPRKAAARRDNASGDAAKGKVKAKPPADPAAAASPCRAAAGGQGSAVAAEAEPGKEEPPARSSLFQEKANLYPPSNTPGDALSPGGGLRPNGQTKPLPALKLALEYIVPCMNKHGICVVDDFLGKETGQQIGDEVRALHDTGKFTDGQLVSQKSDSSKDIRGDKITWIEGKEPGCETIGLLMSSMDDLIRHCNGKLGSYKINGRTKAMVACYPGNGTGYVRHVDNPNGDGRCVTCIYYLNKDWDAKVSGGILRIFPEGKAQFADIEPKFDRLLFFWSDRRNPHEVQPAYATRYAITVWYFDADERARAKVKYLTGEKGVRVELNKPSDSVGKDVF

Homo sapiens [7] = organism: Homo sapiens; experiment: Inhibition of prolyl hydroxylase (unknown origin) assessed as stimulation of EPO release by cell-based assay
Egl nine homolog 1 [8] = molecular target: T2, Egl nine homolog 1; experiment: Inhibition of PHD2 (unknown origin)
Target sequence in this assay (Q9GZT9 whole entry): as the sequence (Q9GZT9 whole entry) above

Prolyl hydroxylase EGLN3 [9] = molecular target: T1, Prolyl hydroxylase EGLN3; experiment: Inhibition of full length human recombinant EGLN-3 using DLDLEALAPYIPADDDFQL as substrate after 20 mins by mass spectrophotometric analysis
Egl nine homolog 1 [10] = molecular target: T2, Egl nine homolog 1; experiment: Inhibition of human recombinant EGLN-1 using DLDLEALAPYIPADDDFQL as substrate after 20 mins by mass spectrophotometric analysis
Target sequence in this assay (Q9GZT9 whole entry): as above

[11] = Inhibition of human CPH2 assessed as 2-Oxoglutarate conversion to succinic acid after 1 hr by radiometric HPLC analysis
[12] = Inhibition of human CPH1 assessed as 2-Oxoglutarate conversion to succinic acid after 1 hr by radiometric HPLC analysis
Egl nine homolog 1 [13] = molecular target: T2, Egl nine homolog 1; experiment: Inhibition of FLAG-tagged full length PHD2 (unknown origin) expressed in Sf9 cells using HIF-1alpha peptide as substrate preincubated for 30 mins followed by substrate addition measured after 2 hrs by HTRF assay in presence of 2-oxoglutarate
Target sequence in this assay (Q9GZT9 whole entry): as above

Egl nine homolog 1 [14] = molecular target: T2, Egl nine homolog 1; experiment: Inhibition of HIF-PH2 (unknown origin) expressed in insect Hi5 cells using [methoxycoumarin]-DLDLEALAPYIPADDDFQL-amide as substrate at 7.4 uM by [14]CO2 capture assay relative to control; conditions: BTI-TN-5B1-4
Target sequence in this assay (Q9GZT9 2-426 limits assumed): as the sequence (Q9GZT9 2-426 limits assumed) above

Homo sapiens [15] = experiment: Antianemic activity in chronic kidney disease patient assessed as increase in hemoglobin level at 6 to 20 mg/kg administered twice weekly for 4 weeks relative to control; format: functional; conditions: dose mg/kg 6-20
Homo sapiens [16] = experiment: Antianemic activity in chronic kidney disease patient assessed as increase in hemoglobin level at 1250 mg, po administered twice weekly for 15 weeks (reference value: 0.2 g/dl); format: functional
Homo sapiens [17] = experiment: Antianemic activity in chronic kidney disease patient assessed as increase in hemoglobin level at 625 mg, po administered twice weekly for 15 weeks (reference value: 0.2 g/dl); format: functional
Homo sapiens [18] = experiment: Antianemic activity in chronic kidney disease patient assessed as increase in hemoglobin level at 375 mg, po administered twice weekly for 15 weeks (reference value: 0.2 g/dl); format: functional
Homo sapiens [19] = experiment: Antianemic activity in chronic kidney disease patient assessed as increase in hemoglobin level at 1250 mg, po administered twice weekly for 15 weeks measured after 4 weeks relative to control; format: functional
Homo sapiens [20] = experiment: Antianemic activity in chronic kidney disease patient assessed as increase in hemoglobin level at 625 mg, po administered twice weekly for 15 weeks measured after 4 weeks relative to control; format: functional
Homo sapiens [21] = experiment: Antianemic activity in chronic kidney disease patient assessed as increase in hemoglobin level at 375 mg, po administered twice weekly for 15 weeks measured after 4 weeks relative to control; format: functional
Homo sapiens [22] = experiment: Increase in plasma EPO level in human at 20 mg/kg, po administered for 7 days relative to control; format: functional
Homo sapiens [23] = experiment: Increase in plasma EPO level in anephric end stage renal disease patient at 20 mg/kg, po administered for 7 days relative to control; format: functional
Homo sapiens [24] = experiment: Increase in plasma EPO level in nephric end stage renal disease patient at 20 mg/kg, po administered for 7 days relative to control; format: functional
Homo sapiens [25] = experiment: Antianemic activity in chronic kidney disease patient assessed as increase in hemoglobin level at 20 mg/kg, po administered 3 times per week for 4 weeks (reference value: 0.35 g/dL); format: functional

T1 sequence (Q9H6Z9 whole entry): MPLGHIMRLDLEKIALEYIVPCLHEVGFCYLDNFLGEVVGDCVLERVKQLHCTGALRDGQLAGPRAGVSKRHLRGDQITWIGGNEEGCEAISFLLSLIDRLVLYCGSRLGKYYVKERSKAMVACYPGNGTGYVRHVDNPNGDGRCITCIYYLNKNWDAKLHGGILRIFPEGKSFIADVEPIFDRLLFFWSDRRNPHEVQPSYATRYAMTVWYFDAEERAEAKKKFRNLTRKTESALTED

In the case of `CC(C)(C)c1ccc(Cn2c(-c3c(Cl)cccc3Cl)nc(O)c(C(=O)NCC(=O)O)c2=O)cc1`, the EC50 (Prolyl hydroxylase EGLN3 [1]) is reported as 0.4 µM and the IC50 (Prolyl hydroxylase EGLN3 [2]) is reported as 0.0008 µM.

`Cn1c(=O)c(C(=O)NCC(=O)O)c(O)c2ccc(-c3cccnc3)nc21` showed an IC50 (Egl nine homolog 1 [3]) of less than 0.05 µM.

Work on `O=C(O)CNC(=O)C1=C(O)c2ccccc2C1=O` yielded an IC50 (Egl nine homolog 1 [3]) of 0.003 µM.

`O=C(O)CNC(=O)c1c(O)c(-c2cccnc2)cc2nccnc12` gave an IC50 (Prolyl hydroxylase EGLN3 [4]) of 0.001 µM and an EC50 (Prolyl hydroxylase EGLN3 [1]) of 0.1 µM.

With `COc1ccc(-n2c(=O)[nH]c3cc(C(=O)NCc4ccc5c(c4)OCO5)sc3c2=O)nc1OC` the IC50 (Prolyl hydroxylase EGLN3 [4]) was 0.001 µM and the EC50 (Prolyl hydroxylase EGLN3 [1]) was 1 µM.

`O=C(O)c1cnn(-c2nc(N3CCCC3)c3cc(Oc4ccc(Cl)cc4)ccc3n2)c1` showed an Activity (Hep 3B2) of 96%.

In the case of `N#Cc1cn(-c2c[nH]n(-c3cc(N4CC(F)(F)C4)ncn3)c2=O)nn1`, the IC50 [5] is reported as 0.07 µM.

In the case of `O=C(O)CNC(=O)c1nc(-c2cn(Cc3ccccc3)nn2)c2snc(-c3ccc(Cl)cc3)c2c1O`, the inhibition (Egl nine homolog 1 [6]) is reported as 100%.

`COc1ccc(-n2c(=S)[nH]c3sc(C(=O)NCc4ccc(Cl)cc4)c(C)c3c2=O)nc1OC` gave an IC50 (Prolyl hydroxylase EGLN3 [4]) of 0.001 µM and an EC50 (Prolyl hydroxylase EGLN3 [1]) of 1 µM.

With `O=C(O)c1cnn(-c2nc3cc(OC(F)(F)F)c(Cl)cc3[nH]2)c1` the A50 (Homo sapiens [7]) was 50 µM and the IC50 (Egl nine homolog 1 [8]) was 0.1 µM.

For `O=C(O)CNC(=O)c1ncc(-c2ccc3ccccc3c2)cc1O`, the IC50 (Prolyl hydroxylase EGLN3 [9]) was 0.017 µM and the IC50 (Egl nine homolog 1 [10]) was 0.017 µM.

Work on `Cn1c(=O)c(C(=O)NCC(=O)O)c(O)c2ccc(Br)cc21` yielded an IC50 [11] of 0.111 µM and an IC50 [12] of 0.351 µM.

Work on `O=C(O)CNC(=O)C1=C(O)c2ccc(Cl)cc2C2(CCOCC2)C1=O` yielded an IC50 (Egl nine homolog 1 [3]) of less than 0.1 µM.

`O=C(O)CNC(=O)c1c(O)c2c(n(Cc3ccc(C(F)(F)F)cc3)c1=O)CSC2` showed an IC50 (Egl nine homolog 1 [13]) of less than 0.01 µM.

With `N#Cc1ccccc1Cn1c(=O)c(C(=O)NCC(=O)O)c(O)n(Cc2ccccc2)c1=O` the EC50 (Prolyl hydroxylase EGLN3 [1]) was 0.4 µM and the IC50 (Prolyl hydroxylase EGLN3 [2]) was 0.0008 µM.

`O=C(O)CNC(=O)c1c(O)n2ccccc2nc1=O` showed an EC50 (Prolyl hydroxylase EGLN3 [1]) greater than 10 µM.

Work on `O=C(O)CNC(=O)c1c(O)c(C(=O)NCc2ccccc2)c(O)n(Cc2ccccc2)c1=O` yielded an EC50 (Prolyl hydroxylase EGLN3 [1]) of 0.001 µM.

With `O=C(O)CNC(=O)c1c(O)c2cc(-c3ccc(Oc4ccccc4)cc3)ccc2oc1=O` the inhibition (Egl nine homolog 1 [14]) was 100%.

With `Cc1ccccc1-c1ccc2nc(-n3cc(C(=O)O)cn3)[nH]c(=O)c2c1` the Activity (Hep 3B2) was 60%.

In the case of `O=C(O)CNC(=O)c1nc(Cl)c2ccccc2c1O`, the Activity (Homo sapiens [15]) is reported as 1.3 g/dL, the Activity (Homo sapiens [16]) is reported as 2.4 g/dL and the Activity (Homo sapiens [17]) is reported as 1.4 g/dL. The Activity (Homo sapiens [18]) was 1.1 g/dL, the Activity (Homo sapiens [19]) was 76% and the Activity (Homo sapiens [20]) was 60%. For the same compound, the Activity (Homo sapiens [21]) was 50%, the “fold change (FC)” value (Homo sapiens [22]) was 12.7 and the “fold change (FC)” value (Homo sapiens [23]) was 14.5. For the same compound, the “fold change (FC)” value (Homo sapiens [24]) was 30.8 and the Activity (Homo sapiens [25]) was 1.9 g/dL.

In the case of `COc1ccc(-n2c(=S)[nH]c3cc(C(=O)NCc4ccc(Cl)cc4)sc3c2=O)nc1OC`, the IC50 (Prolyl hydroxylase EGLN3 [4]) is reported as 0.001 µM and the EC50 (Prolyl hydroxylase EGLN3 [1]) is reported as 1 µM.
